Test results from patent US20190060371A1, “METHODS FOR CONTROLLED PROLIFERATION OF VESTIBULAR STEM CELLS / GENERATING INNER EAR HAIR CELLS USING WNT AND TGFBETA-INHIBITION” (Frequency Therapeutics, Inc., priority 2016, published 2019).
“Also recorded” adds a separate entry of the source.

Key:
[1] = tested on: supporting cell/stem cell; experiment: Expansion of Sox2 and Sox9 positive cells from vestibular organs in 3D Matrigel culture; assay type: cell-based, neonatal mice; settings: for cell growth when added to Wnt agonism (C) (total cells, FIG. 2): added to GF+C (CHIR99021), D10; for colony size compared to Wnt agonism alone (FIG. 5): TGF-beta inhibitor added to CHIR99021 in a background of GF
Procedure: Isolation of stem cells from the inner ear: All animal studies were conducted under an approved institutional protocol according to National Institutes of Health guidelines. For experiments with neonatal mice (postnatal days 1-3), the vestibular organs were dissected in HBSS. The vestibular organs were then treated with TrypLE (Life Technologies) for 15-20 minutes at […]. Single cells obtained by mechanical trituration were filtered (40 μm) and suspended in Matrigel (Corning) for 3D culture. Cells were cultured in a 1:1 mixture of DMEM and F12, supplemented with Glutamax (GIBCO), N2, B27 (Invitrogen), EGF (50 ng/mL; Chemicon), bFGF (50 ng/mL; Chemicon), IGF1 (50 ng/mL; Chemicon) and a composition comprising the following agents: CHIR99021 (a Wnt activator), 616452 (a TGF-beta inhibitor), Noggin (a BMP4 inhibitor), VPA (HDAC inhibitor), and combinations there. Media were changed every other day. Total cells were quantified after 10 days (D10) in culture in multiple conditions. (i) GF; ([…]6); wherein On D10, cell colonies were dissociated into single cells using TrypLE (Gibco). The cells were then stained with propidium iodide (PI) and analyzed using a flow cytometer expression. The number of cells were quantified. […] Also on D10, cells were stained with Sox2 (data not shown), as well as Sox9, Rhodamine Phalloidin (stains F-actin), and DAPI (nuclear stain) (see FIG. 3) to assess the identity of the cell populations. Colonies were visualized using confocal microscopy. Sox2 and Sox9 are stem cell markers in the balance organs.

progenitor colonies = experiment: Differentiation of Sox2 and Sox9 progenitor cell colonies into hair cells; assay type: cell-based, neonatal mice; settings: gamma secretase inhibition; confocal images
Procedure: Isolation of stem cells from the inner ear: All animal studies were conducted under an approved institutional protocol according to National Institutes of Health guidelines. For experiments with neonatal mice (postnatal days 1-3), the vestibular organs were dissected in HBSS. The vestibular organs were then treated with TrypLE (Life Technologies) for 15-20 minutes at […]. Single cells obtained by mechanical trituration were filtered (40 μm) and suspended in Matrigel (Corning) for 3D culture.
Differentiation of Sox2 and Sox9 Progenitor Cells Stem cell colonies were differentiated in a 1:1 mixture of DMEM and F12, supplemented with Glutamax (GIBCO), N2, B27 (Invitrogen), with the addition of molecules that drive differentiation, or after removal of growth factors without the addition of molecules that drive differentiation. Small molecules were added to the culture to test their effect on differentiation.
Indicative of hair cells, the cells express Myo VIIa (green) and have actin hair bundles (red).

Row | Structure (SMILES) | cell growth when added to Wnt agonism (C) (total cells, FIG. 2) ([1]; flow cytometer) | colony size compared to Wnt agonism alone (FIG. 5) [1] | further results
1 | Cc1c[nH]c(-c2cnc(NCCNc3ccc(C#N)cn3)nc2-c2ccc(Cl)cc2Cl)n1 [CHIR99021] | – | – | supporting cell/stem cell growth (total cells, FIG. 2) ([1]; added to GF (EGF, FGF, IGF), 10 days (D10), flow cytometer): promoted supporting cell/stem cell growth; supporting cell/stem cell growth and colony formation (FIG. 5) ([1]; in a background of GF): promoted supporting cell/stem cell growth and colony formation
2 | Cc1cccc(-c2n[nH]cc2-c2ccc3ncccc3n2)n1 [Compound 616452, 2-(3-(6-Methylpyridin-2-yl)-1H-pyrazol-4-yl)-1,5-naphthyridine] | improved stem cell growth | – | –
3 | NC(=O)c1ccc(-c2nc(-c3ccc4c(c3)OCO4)c(-c3ccccn3)[nH]2)cc1 [SB-431542, 4-[4-(1,3-Benzodioxol-5-yl)-5-(2-pyridinyl)-1H-imidazol-2-yl]-benzamide] | – | larger supporting cell/stem cell colonies | –
4 | C[C@H](NC(=O)[C@@H](O)c1cc(F)cc(F)c1)C(=O)N[C@@H]1C(=O)N(C)c2ccccc2-c2ccccc21 [LY411575] | – | – | conversion of colonies into hair cells (Myosin VIIA, actin hair bundles; FIG. 4) (progenitor colonies): differentiated into high purity populations of hair cells; also recorded: converted into high purity hair cell populations
5 | Cc1cccc(-c2nn(C(=S)Nc3ccccc3)cc2-c2ccnc3ccccc23)n1 [Compound A-83-01, 3-(6-Methylpyridin-2-yl)-4-(4-quinolyl)-1-phenylthiocarbamoyl-1H-pyrazole] | – | larger colonies | colony size compared to Wnt agonism alone (FIG. 5) ([1]; listed as A 83-01): larger supporting cell/stem cell colonies
6 | CCCC(CCC)C(=O)O [VPA, valproic acid] | inhibited cell growth | – | –
